Test results: US10239847B1, “Method for 2-oxothiazolidine-4-carboxylic acid for cellular glutathione” (JBP Group LLC, priority 2016, dated 2019)
Entries after “also recorded” stand apart in the source; their conditions may differ. Where two headings read alike, the source gives them in different places.

Legend:
[1] = test system: Dog; assay: Once daily IV for 28 days, dog; type: in vivo; conditions: compared to IV dog, suggested human oral dose 0.025 g/kg
Description: (§1) The following tables are a compilation of known results and estimates of NOAEL/LOAEL for various animal species and humans. […] In addition, genetic toxicity studies, Ames Test, Chromosome Aberration, and Mouse Micronucleus have been conducted and all of these studies were negative for genetic toxicity (i.e. non-genotoxic).
(§2) The following is a compilation of known results and estimates of NOAEL/LOAEL for various animal species and humans.

[2] = test system: patients with ARDS; conditions: first Phase II trial, 32 ARDS patients, IV; cited from earlier work
[3] = test system: dogs; assay: Acute and repeat intravenous NOAEL in dogs; type: in vivo; conditions: recommended daily intake 1.75 g (~25 mg/kg) compared to dog IV NOAEL
Description: (§3) Utilizing animal (dog and rat) data and comparing that to the recommended daily procysteine (Cellactin) intake of 1.75 g or ˜25 mg/kg, that represents 18× to 96× safety margin compared to acute no adverse effect level (NOAEL) and repeat NOAEL intravenous administration in dogs (450 mg/kg) and rats (2400 mg/kg), respectively. The safety margin may be even greater if compared to animal oral administration data.
(§4) Acute NOAEL and repeat NOAEL for intravenous administration in dogs was 450 mg/kg and in rats was 2400 mg/kg, with these values representing the highest dosages intravenously tested and it is assumed that the NOAEL levels would be even higher for oral administration in animals. […] Therefore, it is reasonable to expect that a recommended human oral, daily procysteine (Cellactin) intake of 1.75 grams will be safe and an acceptable daily intake of up to 9 grams orally could also be considered safe.

[4] = test system: Human HIV patients; assay: Clinical: oral daily for 6 months, HIV patients; type: in vivo; conditions: compared to human oral, suggested human oral dose 25 mg/kg/day
Description: as §1, §2

[5] = test system: glutathione in rat lungs and leukocytes; conditions: sulfur amino acid deficient rat diets, supplementation; cited from earlier work
[6] = test system: human; conditions: cited from earlier work
[7] = test system: liver glutathione levels; conditions: fasted mice, dietary supplementation; cited from earlier work
[8] = test system: Human HIV patients; conditions: oral ≥25 mg/kg daily for 1 week, highest dose tested; cited from earlier work
[9] = test system: Human HIV patients; assay: Clinical: oral ≥25 mg/kg daily for 1 week, HIV patients; type: in vivo; conditions: compared to human oral, suggested human oral dose 25 mg/kg/day
Description: as §1, §2

[10] = test system: Rat, neonate; conditions: in vivo, iv; cited from earlier work
[11] = test system: Dog; assay: Single IV toxicity (NOAEL/LOAEL), dog; type: in vivo; conditions: compared to IV dog, suggested human oral dose 0.025 g/kg
Description: as §1, §2

[12] = test system: dogs; conditions: dog, in vivo; cited from earlier work
[13] = test system: rats; conditions: rat, in vivo; cited from earlier work
[14] = test system: Human ARDS patients; conditions: IV every 8 hours for 10 days, highest dose tested, cited from earlier work
[15] = test system: patients with ARDS; conditions: Phase II, versus placebo; cited from earlier work
[16] = test system: Human HIV patients; conditions: cited from earlier work
[17] = test system: Dog; conditions: in vivo, iv; cited from earlier work
[18] = test system: Mouse; conditions: in vivo, iv; cited from earlier work
[19] = test system: human; assay: Human intravenous NOAEL calculations; type: in vivo; conditions: oral daily intake 1.75 grams compared to human intravenous NOAEL calculations
Description: (§5) This would then result in an EDI/ADI ratio of 9 grams/day/9 grams/day=1. Without knowing the NOAEL or LOAEL for humans it is difficult to determine a true estimate of margin of safety. […] However, it would be reasonable to assume that a much higher estimate of safety margin would be expected based on the 4-8× estimate comparing oral, daily Procysteine (Cellactin) intake of 1.75 grams to human intravenous NOAEL calculations shown above in section 4.1 and 18 or 96× comparing to dog and rat intravenous NOAEL calculations, respectively shown above in Section 4.1. It is reasonable to conclude that the safety margin would be even greater if compared to animal oral administration data.
as §5, with “Without” for “This would then result in an EDI/ADI ratio of 9 grams/day/9 grams/day=1. Without”

[20] = test system: Dog; conditions: in vivo, iv; cited from earlier work; remark: listed apart in the source
[21] = test system: Human HIV patients; assay: Clinical: orally up to 9000 mg/day for 2 years, HIV patients; type: in vivo
[22] = test system: tissue glutathione levels; conditions: acutely septic rats; cited from earlier work
[23] = test system: rats; assay: Acute and repeat intravenous NOAEL in rats; type: in vivo; conditions: recommended daily intake 1.75 g (~25 mg/kg) compared to rat IV NOAEL
Description: as §3, §4

[24] = test system: Rat; assay: Once daily IV for 28 days, rat; type: in vivo; conditions: compared to IV rat, suggested human oral dose 0.025 g/kg
Description: as §1, §2

[25] = test system: Human ARDS patients; assay: Clinical: IV 63 mg/kg every 8 hours for 10 days, ARDS patients; type: in vivo; conditions: compared to IV human (ARDS); suggested human oral dose 25 mg/kg/day
Description: as §1, §2

[26] = test system: Mouse; assay: Single IV toxicity (NOAEL/LOAEL), mouse; type: in vivo; conditions: printed 'compared to IV rat', suggested human oral dose 0.025 g/kg
Description: as §1, §2

[27] = test system: Mouse; conditions: in vivo; cited from earlier work
[28] = test system: Human HIV patients; assay: Clinical: single IV then six biweekly infusions, 13 administrations, HIV patients; type: in vivo; conditions: compared to human IV; suggested human oral dose 25 mg/kg/day
Description: as §1, §2

[29] = test system: Rat; assay: Single IV toxicity (NOAEL/LOAEL), rat; type: in vivo; conditions: compared to IV rat, suggested human oral dose 0.025 g/kg
Description: as §1, §2

[30] = test system: blood glutathione levels; conditions: human, oral 25-129 mg/kg (1.75-9 g/day), dose response manner; cited from earlier work
[31] = test system: cellular glutathione levels; conditions: glutathione-depleting agents administered to otherwise healthy animals; cited from earlier work
[32] = test system: Rat; conditions: in vivo, iv; cited from earlier work
[33] = test system: Rat; conditions: in vivo, iv; cited from earlier work; remark: listed apart in the source
[34] = Shelf life / purity stability of Cellactin; type: physicochemical
Description: FIG. 9 illustrates Cellactin shelf life estimation by extrapolation. As depicted that upper dotted line indicates an upper acceptance of 100 percent stability. The lower dotted line indicates 99 percent stability. The solid line represents the extrapolation line with the triangles representing raw data. The product has been extrapolated to be stable for 2 years as supplied if stored in original package at ambient temperature and protected from heat and moisture. […] Confirmation of extrapolation assumes the change pattern may continue to fit model for at least 24 months.

[35] = test system: intracellular levels of glutathione; conditions: preclinical studies; cited from earlier work
[36] = test system: Human HIV patients; conditions: single IV then six biweekly infusions, 13 administrations, highest dose tested; cited from earlier work
[37] = test system: Human HIV patients; assay: Clinical: single oral dose then 3000, 4500, 9000 mg/day for 28 days, HIV patients; type: in vivo; conditions: compared to human oral, suggested human oral dose 25 mg/kg/day
Description: as §1, §2

[38] = test system: tissue glutathione levels; conditions: rodent brains; cited from earlier work
[39] = human, oral, as used for the EDI/ADI ratio

O=C1N[C@H](C(=O)O)CS1 [procysteine, L-2-oxothiazolidine-4-carboxylate]
Safety Margin Human Oral [1]: 18× compared
independence from mechanical ventilation versus placebo [2]: a median of five days earlier
safety margin [3]: 18 ×
Safety Margin Human Oral [4]: 5X compared
glutathione in rat lungs and leukocytes [5]: preserved
adverse experiences possibly related to treatment ([6]; across all clinical trials): only minor adverse experiences
statistically significant adverse events ([6]; human clinical trials): No statistical significant adverse events were observed
tolerability ([6]; human clinical trials): well tolerated
tolerability ([6]; human clinical trials, listed as procysteine (Cellactin)): generally well tolerated without observed adverse effects; also recorded: well tolerated
liver glutathione levels [7]: increased
NOAEL [8]: ≥25 mg/kg/day
Safety Margin Human Oral [9]: 1X compared
NOAEL [10]: ≥450 mg/kg
Safety Margin Human Oral [11]: 18× compared
acute NOAEL and repeat NOAEL, intravenous administration [12]: 450 mg/kg
acute NOAEL and repeat NOAEL, intravenous administration [13]: 2400 mg/kg
NOAEL ([14]; expressed per day): ≥ 189 mg/kg/day
NOAEL [14]: ≥63 mg/kg/8 hours
efficiency in transporting oxygen to the blood stream (measure of lung function) [15]: to a greater degree than did placebo-treated patients
NOAEL ([16]; Human HIV patients, orally up to 9000 mg/day for 2 years, highest dose tested): ≥129 mg/kg/day
changes in serum chemistry or hematology ([16]; human, up to 9 grams per day orally for 2 years): without clinically significant changes
NOAEL [17]: ≥450 mg/kg
NOAEL [18]: ≥2400 mg/kg
estimate of safety margin [19]: 4-8 ×
NOAEL [20]: ≥450 mg/kg
EDI/ADI ratio ([21]; 9 grams/day / 9 grams/day): 1
Safety Margin Human Oral ([21]; compared to human oral, 2 years, suggested human oral dose 25 mg/kg/day): 5X compared
ADI [21, 39]: < 9 grams/day
estimated daily intake (EDI) [21, 39]: < 9 grams/day
acceptable daily intake (ADI) ([21]; human, oral, based on 9 grams per day for 2 years): up to 9 grams per day
safety margin ([21]; recommended oral daily intake 1.75 g compared to 9 grams per day taken orally for 2 years): 5 ×
tissue glutathione levels [22]: increased (repleted)
safety margin [23]: 96 ×
Safety Margin Human Oral [24]: 96× compared
Safety Margin Human Oral [25]: 8X compared
Safety Margin Human Oral [26]: 96× compared
Mouse Micronucleus, genetic toxicity [27]: negative
Safety Margin Human Oral [28]: 4X compared
Safety Margin Human Oral [29]: 96× compared
blood glutathione levels [30]: significant increase
cellular glutathione levels [31]: maintained
NOAEL [32]: ≥2400 mg/kg
NOAEL [33]: ≥2400 mg/kg
shelf life (stable as supplied), by extrapolation ([34]; original package, ambient temperature, protected from heat and moisture): 2 years
purity percent change ([34]; two preparation batches, T0 to T6 (months)): No purity percent change
ROS damage [35]: prevent
intracellular levels of glutathione [35]: increase
NOAEL [36]: ≥100 mg/kg/day
Safety Margin Human Oral [37]: 5X compared
tissue glutathione levels [38]: increased (repleted)
